Experimental data as given in patent publication US8609669B2, “Potassium channel modulators” (AbbVie Inc., priority 2010, dated 2013).

Molecular target: T1, KCNQ 2/3 channels (HEK293 cells stably expressing human KCNQ2 and KCNQ3 subunits) (Homo sapiens, UniProt O43525+O43526)
T1 construct: expressed in transfected cells; host or cells: HEK293
Assay: KCNQ2/3 channel activation, thallium flux FLIPR assay (BTC-AM dye)
Format: cell-based
Settings: for Emax: HEK293, maximum response relative to response of retigabine at 10 μM (set at 100%), read-out: Max. %; for EC50: HEK293 cells expressing human KCNQ2 and KCNQ3, FLIPR thallium flux
Protocol: The following example describes the assay that can be used to identify compounds that activate KCNQ 2/3 channels.
HEK293 cells stably expressing human KCNQ2 and KCNQ3 subunits were seeded in 96-well, black-walled, clear-bottomed, poly-D-lysine coated plates (BD Biosciences, Bedford, Mass.) at a density of 1×10^5 cells per well 24 hours before the assay. On the assay day, BTC-AM dye (Invitrogen, Carlsbad, Calif.) was loaded into the cells by replacing the cell culture medium with 100 μL/well of 4 μM dye in DPBS. Dye loading was allowed to proceed for 2 hours at room temperature and then cells were washed twice in 100 μL/well of assay buffer (in mM: 10 HEPES pH 7.3, 5 glucose, 140 Na-gluconate, 2.5 K-gluconate, 3.6 Ca-gluconate, 2 MgSO4, 0.1 Ouabain) to remove unloaded dye. Cells were incubated in 50 μL of assay buffer before loading onto a FLIPR system (Molecular Devices, Sunnyvale, Calif.). Various concentrations of compounds to be assayed were added to the cells in 50 μL of assay buffer and incubated for 4 minutes. The fluorescence signal was initiated by adding 100 μL of assay buffer containing 6 mM TlNO3 and 10 mM K2SO4. Fluors were excited using the 488-nm line of an argon laser and emission was filtered using a 540±30 nm bandpass filter. Fluorescent signals were recorded for 3 minutes. Responses over baseline values were plotted versus concentrations of test compounds to obtain an EC50 value. The maximum response for each test compound was determined relative to the response produced at 10 μM by retigabine. The maximum response of retigabine at 10 μM was set at 100%.

Emax [%]	EC50 [nM]	Structure (SMILES)
154	500 to 1000	CC(C)c1ccc(CC(=O)Nc2nn3cccnc3c2C(C)(C)C)cc1 [Example 166, N-(3-tert-butylpyrazolo[1,5-a]pyrimidin-2-yl)-2-(4-isopropylphenyl)acetamide]
20	> 10000	CC(C)(C)OC(=O)Nc1nn2cccnc2c1-c1ccc(OC(F)(F)F)cc1 [Example 148, tert-butyl {3-[4-(trifluoromethoxy)phenyl]pyrazolo[1,5-a]pyrimidin-2-yl}carbamate]
143	< 100	Cc1cc(C)n2nc(NC(=O)CC3CCCC3)c(-c3cccc(Cl)c3)c2n1 [Example 53, N-[3-(3-chlorophenyl)-5,7-dimethylpyrazolo[1,5-a]pyrimidin-2-yl]-2-cyclopentylacetamide]
78	100 to 500	Cc1ccn2nc(NC(=O)Cc3ccc(F)cc3)c(-c3ccc(OC(F)(F)F)cc3)c2n1 [Example 168, 2-(4-fluorophenyl)-N-{5-methyl-3-[4-(trifluoromethoxy)phenyl]pyrazolo[1,5-a]pyrimidin-2-yl}acetamide]
133	1000 to 10000	CC(C)(C)c1c(NC(=O)C=C2CCCCC2)nn2cccnc12 [Example 163, N-(3-tert-butylpyrazolo[1,5-a]pyrimidin-2-yl)-2-cyclohexylideneacetamide]
156	1000 to 10000	CC(C)(C)Cc1c(NC(=O)CCc2ccccc2)nn2cccnc12 [Example 10, N-[3-(2,2-dimethylpropyl)pyrazolo[1,5-a]pyrimidin-2-yl]-3-phenylpropanamide]
68	1000 to 10000	Cc1cc(C)n2nc(NC(=O)CCC3CCCCC3)c(-c3ccc(Cl)c(C)c3)c2n1 [Example 48, N-[3-(4-chloro-3-methylphenyl)-5,7-dimethylpyrazolo[1,5-a]pyrimidin-2-yl]-3-cyclohexylpropanamide]
117	100 to 500	Cc1ccnc2c(-c3cccc(C(F)(F)F)c3)c(NC(=O)Cc3ccc(F)cc3)nn12 [Example 67, 2-(4-fluorophenyl)-N-{7-methyl-3-[3-(trifluoromethyl)phenyl]pyrazolo[1,5-a]pyrimidin-2-yl}acetamide]
140	500 to 1000	COc1cccc(CC(=O)Nc2nn3cc(C)cnc3c2-c2ccc(OC(F)(F)F)cc2)c1 [Example 8, 2-(3-methoxyphenyl)-N-{6-methyl-3-[4-(trifluoromethoxy)phenyl]pyrazolo[1,5-a]pyrimidin-2-yl}acetamide]
153	100 to 500	CC(C)(C)c1c(NC(=O)CCC2CCCC2)nn2cccnc12 [Example 105, N-(3-tert-butylpyrazolo[1,5-a]pyrimidin-2-yl)-3-cyclopentylpropanamide]
174	100 to 500	CC(C)(C)/C=C/c1c(NC(=O)CC(C)(C)C)nn2cccnc12 [Example 144, N-{3-[(1E)-3,3-dimethylbut-1-en-1-yl]pyrazolo[1,5-a]pyrimidin-2-yl}-3,3-dimethylbutanamide]
66	> 10000	O=C(Cc1ccc(F)cc1)Nc1nn2cccnc2c1-c1ccc(OC(F)(F)F)cc1 [Example 140, 2-(4-fluorophenyl)-N-{3-[4-(trifluoromethoxy)phenyl]pyrazolo[1,5-a]pyrimidin-2-yl}acetamide]
178	100 to 500	CC(C)(C)c1c(NC(=O)CCc2ccc(C(F)(F)F)cc2)nn2cccnc12 [Example 165, N-(3-tert-butylpyrazolo[1,5-a]pyrimidin-2-yl)-3-[4-(trifluoromethyl)phenyl]propanamide]
173	100 to 500	COc1cccc(CC(=O)Nc2nn3c(C)cc(C)nc3c2-c2ccc(F)c(C)c2)c1 [Example 32, N-[3-(4-fluoro-3-methylphenyl)-5,7-dimethylpyrazolo[1,5-a]pyrimidin-2-yl]-2-(3-methoxyphenyl)acetamide]
96	1000 to 10000	CC(C)(CC(=O)Nc1nn2cccnc2c1-c1cccc(F)c1)c1ccccc1 [Example 128, N-[3-(3-fluorophenyl)pyrazolo[1,5-a]pyrimidin-2-yl]-3-methyl-3-phenylbutanamide]
125	100 to 500	Cc1cnc2c(-c3ccc(F)cc3)c(NC(=O)Cc3ccc(Cl)cc3)nn2c1 [Example 27, 2-(4-chlorophenyl)-N-[3-(4-fluorophenyl)-6-methylpyrazolo[1,5-a]pyrimidin-2-yl]acetamide]
8	> 10000	COc1cc(CC(=O)Nc2nn3cccnc3c2-c2ccc(Cl)cc2)cc(OC)c1 [Example 109, N-[3-(4-chlorophenyl)pyrazolo[1,5-a]pyrimidin-2-yl]-2-(3,5-dimethoxyphenyl)acetamide]

Emax [%]	EC50 [nM]	Structure (SMILES)
101	1000 to 10000	Cc1ccc(-c2c(NC(=O)CC(C)(C)C)nn3c(C)ccnc23)cc1F [Example 12, N-[3-(3-fluoro-4-methylphenyl)-7-methylpyrazolo[1,5-a]pyrimidin-2-yl]-3,3-dimethylbutanamide]
166	< 100	Cc1ccnc2c(CC(C)(C)C)c(NC(=O)CCC3CCCCC3)nn12 [Example 37, 3-cyclohexyl-N-[3-(2,2-dimethylpropyl)-7-methylpyrazolo[1,5-a]pyrimidin-2-yl]propanamide]
139	100 to 500	Cc1cnc2c(-c3cccc(F)c3)c(NC(=O)CC3CCCC3)nn2c1 [Example 83, 2-cyclopentyl-N-[3-(3-fluorophenyl)-6-methylpyrazolo[1,5-a]pyrimidin-2-yl]acetamide]
141	1000 to 10000	CC(C)(C)CC(=O)Nc1nn2cccnc2c1-c1cccc(OC(F)(F)F)c1 [Example 22, 3,3-dimethyl-N-{3-[3-(trifluoromethoxy)phenyl]pyrazolo[1,5-a]pyrimidin-2-yl}butanamide]
133	100 to 500	CC(C)(C)c1c(NC(=O)CC(C)(C)c2ccccc2)nn2cccnc12 [Example 126, N-(3-tert-butylpyrazolo[1,5-a]pyrimidin-2-yl)-3-methyl-3-phenylbutanamide]
120	< 100	Cc1cnc2c(-c3ccc(C)c(F)c3)c(NC(=O)CCC3CCCC3)nn2c1 [Example 20, 3-cyclopentyl-N-[3-(3-fluoro-4-methylphenyl)-6-methylpyrazolo[1,5-a]pyrimidin-2-yl]propanamide]
117	100 to 500	Cc1cc(-c2c(NC(=O)CCC3CCCC3)nn3c(C)ccnc23)ccc1Cl [Example 46, N-[3-(4-chloro-3-methylphenyl)-7-methylpyrazolo[1,5-a]pyrimidin-2-yl]-3-cyclopentylpropanamide]
124	1000 to 10000	CC(C)(C)CCC(=O)Nc1nn2cccnc2c1C(C)(C)C [Example 170, N-(3-tert-butylpyrazolo[1,5-a]pyrimidin-2-yl)-4,4-dimethylpentanamide]
52	1000 to 10000	O=C(CCC1CCCC1)Nc1nn2cccnc2c1-c1cccnc1 [Example 119, 3-cyclopentyl-N-[3-(pyridin-3-yl)pyrazolo[1,5-a]pyrimidin-2-yl]propanamide]
10	> 10000	O=C(Cc1ccccc1O)Nc1nn2cccnc2c1-c1ccc(Cl)cc1 [Example 104, N-[3-(4-chlorophenyl)pyrazolo[1,5-a]pyrimidin-2-yl]-2-(2-hydroxyphenyl)acetamide]
73	500 to 1000	CC1(C)[C@H]2CC[C@@H](CC(=O)Nc3nn4cccnc4c3-c3ccc(OC(F)(F)F)cc3)[C@@H]1C2 [Example 4, 2-[(1S,2S,5S)-6,6-dimethylbicyclo[3.1.1]hept-2-yl]-N-{3-[4-(trifluoromethoxy)phenyl]pyrazolo[1,5-a]pyrimidin-2-yl}acetamide]
10	> 10000	Cc1ccc(/C=C/c2c(NC(=O)CC(C)(C)C)nn3cccnc23)cn1 [Example 115, 3,3-dimethyl-N-{3-[(E)-2-(6-methylpyridin-3-yl)vinyl]pyrazolo[1,5-a]pyrimidin-2-yl}butanamide]
151	500 to 1000	CCC1(c2c(NC(=O)CC3CC4CCC3C4)nn3cccnc23)CCCCC1 (racemic) [Example 146, (±)-exo-2-bicyclo[2.2.1]hept-2-yl-N-[3-(1-ethylcyclohexyl)pyrazolo[1,5-a]pyrimidin-2-yl]acetamide]
23	> 10000	O=C(Cc1ccncc1)Nc1nn2cccnc2c1-c1ccc(Cl)cc1 [Example 102, N-[3-(4-chlorophenyl)pyrazolo[1,5-a]pyrimidin-2-yl]-2-(pyridin-4-yl)acetamide]
155	100 to 500	Cc1cnc2c(C(C)(C)C)c(NC(=O)CC3CCCCC3)nn2c1 [Example 180, N-(3-tert-butyl-6-methylpyrazolo[1,5-a]pyrimidin-2-yl)-2-cyclohexylacetamide]
195	1000 to 10000	CC(C)(C)c1c(NC(=O)Cc2ccccc2)nn2cccnc12 [Example 137, N-(3-tert-butylpyrazolo[1,5-a]pyrimidin-2-yl)-2-phenylacetamide]
